ChEMBL document CHEMBL4680115, “Discovery of the programmed cell death-1/programmed cell death-ligand 1 interaction inhibitors bearing an indoline scaffold” (Eur J Med Chem, 2020)

Tests used:
[1] = biological target: T1, Programmed cell death protein 1/Programmed cell death 1 ligand 1 (Homo sapiens, UniProt Q15116+Q9NZQ7); assay: Inhibition of PD-1/PDL1 interaction (unknown origin) by HTRF assay; format: protein-complex assay
Jurkat = assay: Cytotoxicity against human Jurkat T cells assessed as reduction in cell viability measured after 72 hrs by CCK-8 assay; format: cell-based; conditions: for Activity: human, jurkat, time 72 hrs; for EC50: Homo sapiens, Jurkat
[2] = biological target: T1, Programmed cell death protein 1/Programmed cell death 1 ligand 1; assay: Inhibition of PD1/PDL1 protein-protein interaction in human PBMC-derived CD3-positive T cells co-cultured with human Hep3B cells expressing human PDL1/OS-8 assessed as increase in IFNgamma secretion measured after 72 hrs; conditions: dose 0.31-20 µM
[3] = biological target: T1, Programmed cell death protein 1/Programmed cell death 1 ligand 1; assay: Inhibition of PD1/PDL1 protein-protein interaction in human PBMC-derived CD3-positive T cells co-cultured with human Hep3B cells expressing human PDL1/OS-8 assessed as increase in IFNgamma secretion at 20 uM measured after 72 hrs; design: scale not given: the % may be the effect or the level left
[4] = biological target: T1, Programmed cell death protein 1/Programmed cell death 1 ligand 1; assay: Inhibition of PD1/PDL1 protein-protein interaction in human PBMC-derived CD3-positive T cells co-cultured with human Hep3B cells expressing human PDL1/OS-8 assessed as increase in IFNgamma secretion at 5 uM measured after 72 hrs relative to BMS-1

T1 sequence (Q15116 whole entry): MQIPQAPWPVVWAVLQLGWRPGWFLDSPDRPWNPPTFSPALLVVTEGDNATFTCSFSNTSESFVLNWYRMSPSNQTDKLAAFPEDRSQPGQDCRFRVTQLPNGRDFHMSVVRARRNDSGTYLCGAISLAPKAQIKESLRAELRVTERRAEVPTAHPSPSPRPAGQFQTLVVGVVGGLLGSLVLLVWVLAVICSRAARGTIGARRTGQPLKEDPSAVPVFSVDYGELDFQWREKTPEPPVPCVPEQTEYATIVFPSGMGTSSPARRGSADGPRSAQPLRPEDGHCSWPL
T1 sequence (Q9NZQ7 whole entry): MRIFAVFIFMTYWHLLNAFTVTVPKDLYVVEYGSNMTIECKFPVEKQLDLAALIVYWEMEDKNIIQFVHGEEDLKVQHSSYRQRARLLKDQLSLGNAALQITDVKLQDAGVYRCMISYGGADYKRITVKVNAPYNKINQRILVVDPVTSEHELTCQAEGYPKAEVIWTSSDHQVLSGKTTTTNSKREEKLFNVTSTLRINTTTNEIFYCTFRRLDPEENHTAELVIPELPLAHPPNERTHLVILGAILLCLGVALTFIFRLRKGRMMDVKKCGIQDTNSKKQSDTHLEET

Row | SMILES | IC50 [1] [µM] | also measured
1 | Cc1cc(C(=O)N2CCc3c(-c4ccccc4)cccc32)ccc1CNCCO | 0.212 | Activity (Jurkat): Toxic
2 | COc1cc(C(=O)N2CCc3c(-c4ccc5c(c4)OCCO5)cccc32)ccc1CNCCNC(C)=O | 0.416 | –
3 | Cc1c(-c2ccccc2)cccc1N1Cc2cc(CNCCO)ccc2C1=O | 7.29 | –
4 | CC(=O)NCCNCc1ccc(C(=O)N2CCc3c(-c4ccccc4)cccc32)cc1 | 0.622 | –
5 | Cc1c(-c2ccccc2)cccc1N1Cc2ccc(CNCCO)cc2C1=O | 9.38 | –
6 | O=C(c1ccc(CNCCO)cc1)N1CCc2c(-c3ccccc3)cccc21 | 0.192 | Activity (Jurkat): Toxic
7 | CC(=O)NCCNCc1ccc(C(=O)N2CCc3c(-c4ccccc4)cccc32)cc1OCc1cccc(C#N)c1 | 1.06 | –
8 | COc1cc(C(=O)N2CCc3c(-c4ccccc4)cccc32)cc(OC)c1CNCCO | 4.77 | –
9 | COc1cc(C(=O)N2CCc3c(-c4ccccc4)cccc32)ccc1CNCCO | – | EC50 (Jurkat): 44.7 µM; inhibition [2]: Dose-dependent effect; Activity [3]: 610%; fold change (FC) [4]: 3.21
10 | N#Cc1cccc(COc2cc(C(=O)N3CCc4c(-c5ccccc5)cccc43)ccc2CNCCO)c1 | 0.572 | –
11 | COc1cc(C(=O)N2CCc3c(-c4ccccc4)cccc32)ccc1CN1CCC[C@H]1C(=O)O | 1.89 | –
12 | N#Cc1cccc(COc2cc(C(=O)N3CCc4c(-c5ccccc5)cccc43)ccc2CN2CCCC[C@H]2C(=O)O)c1 | 1.33 | –
13 | CC(=O)NCCNCc1ccc(C(=O)N2CCc3c(-c4ccccc4)cccc32)cc1O | 0.602 | –
14 | CC(=O)NCCNCc1ccc2c(c1)C(=O)N(c1cccc(-c3ccccc3)c1C)C2 | > 10 | –
15 | CC(=O)NCCNCc1ccc2c(c1)CN(c1cccc(-c3ccccc3)c1C)C2=O | > 10 | –
16 | COc1cc(C(=O)N2CCc3c(-c4ccccc4)cccc32)cc(OC)c1CNCCNC(C)=O | 7.26 | –

Row | SMILES | IC50 [1] [µM] | also measured
17 | COc1cc(C(=O)N2CCc3c(-c4ccccc4)cccc32)ccc1CN1CCCC[C@@H]1C(=O)O | 1.06 | –
18 | O=C(c1cccc(CNCCO)c1)N1CCc2c(-c3ccccc3)cccc21 | 0.344 | –
19 | O=C(c1ccc(CNCCO)cc1Cl)N1CCc2c(-c3ccccc3)cccc21 | > 10 | –
20 | O=C(c1ccc(CNCCO)c(O)c1)N1CCc2c(-c3ccccc3)cccc21 | 0.304 | –
21 | COc1cc(C(=O)N2CCc3c(-c4ccccc4)cccc32)ccc1CN1CCC[C@H]1CO | 0.62 | –
22 | COc1cc(C(=O)N2CCc3c(-c4ccc5c(c4)OCCO5)cccc32)ccc1CNCCO | 0.225 | Activity (Jurkat): Toxic
23 | COc1cc(C(=O)N2CCc3c(-c4ccccc4)cccc32)ccc1CNCCNC(C)=O | 0.22 | EC50 (Jurkat): 39.8 µM; inhibition [2]: Dose-dependent effect
24 | CC(=O)NCCNCc1cccc(C(=O)N2CCc3c(-c4ccccc4)cccc32)c1 | 0.745 | –
25 | COCCNCc1ccc(C(=O)N2CCc3c(-c4ccccc4)cccc32)cc1OC | 0.35 | –
26 | CC(=O)NCCNCc1ccc(C(=O)N2CCc3c(-c4ccccc4)cccc32)cc1Cl | 0.589 | –
27 | N#Cc1cccc(COc2cc(C(=O)N3CCc4c(-c5ccccc5)cccc43)ccc2CN[C@H](CO)C(=O)O)c1 | 3.28 | –
28 | CC(=O)NCCNCc1ccc(C(=O)N2CCc3c(-c4ccccc4)cccc32)c(Cl)c1 | > 10 | –
29 | CC(=O)NCCNCc1ccc(C(=O)N2CCc3c(-c4ccccc4)cccc32)cc1C | 0.457 | –
30 | COc1cc(C(=O)N2CCc3c(-c4ccccc4)cccc32)ccc1CN[C@H](CO)C(=O)O | 0.278 | –
31 | O=C(c1ccc(CNCCO)c(Cl)c1)N1CCc2c(-c3ccccc3)cccc21 | 0.353 | –
